For the assay, the target named is T1, CYP17A1 (Homo sapiens, UniProt P05093).
T1 sequence (P05093 1-508): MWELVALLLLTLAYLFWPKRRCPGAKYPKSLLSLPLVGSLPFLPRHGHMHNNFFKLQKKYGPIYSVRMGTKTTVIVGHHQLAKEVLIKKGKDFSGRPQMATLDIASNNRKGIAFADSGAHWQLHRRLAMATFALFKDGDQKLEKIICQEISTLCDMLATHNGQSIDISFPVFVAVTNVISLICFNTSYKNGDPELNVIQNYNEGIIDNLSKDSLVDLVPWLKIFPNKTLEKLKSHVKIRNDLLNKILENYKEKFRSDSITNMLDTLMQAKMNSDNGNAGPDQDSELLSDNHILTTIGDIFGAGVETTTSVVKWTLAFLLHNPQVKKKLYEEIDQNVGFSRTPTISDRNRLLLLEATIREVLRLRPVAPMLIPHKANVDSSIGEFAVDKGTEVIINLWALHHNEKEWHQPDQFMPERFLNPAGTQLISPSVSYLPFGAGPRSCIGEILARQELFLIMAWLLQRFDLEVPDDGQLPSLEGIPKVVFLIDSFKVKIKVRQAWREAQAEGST
Put plainly: […]α-hydroxylase activity, conversion of […]-progesterone to […]OH-progesterone, TLC; enzyme source not given. The format is cell-based.

Structures are written as SMILES.

With `c1ccc2c(c1)ncn2-c1ccc(NC2CCCCC2)cc1` [compound 2], the IC50 (commonly the concentration at which inhibition is half-maximal) was 1200 nM.
The same measure for `Cc1cc(Nc2cccnc2)ccc1-n1ccc2ccccc21` [compound 20]: 2600 nM.

The record behind these values is publication PMC8961587, “Synthesis and Structure–Activity Relationships of Novel Non-Steroidal CYP17A1 Inhibitors as Potential Prostate Cancer Agents” (Biomolecules, 2022).
